Measurements from patent US7612064B2, “Sulfopyrroles” (Takeda Pharmaceutical Company Limited, priority 2003, dated 2009).

Assays:
HeLa = experiment: MTS proliferation assay; assay type: cell-based, human; settings: 72 h
In short: (§1)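 Cells were exposed for 72 h under culture conditions to test compounds at final concentrations of 10, 3, 1 and 0.3 μM, added in complete medium with at most 5% DMSO. MTS reagent was then added for a further 3 h, and absorbance was read at 492 nm.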

Jurkat = experiment: MTS proliferation assay; assay type: cell-based, human; settings: 72 h
In short: as §1

Jily = experiment: MTS proliferation assay; assay type: cell-based; settings: 72 h
In short: as §1

MRC5 = experiment: MTS proliferation assay; assay type: cell-based; settings: MRC5, 72 h
In short: as §1

[1] = Hoechst 33342 nuclear staining; assay type: cell-based; settings: for Hoechst 33342 nuclear staining score, H460: H460 cells; for Hoechst 33342 nuclear staining score, HeLa: HeLa cells; for Hoechst 33342 nuclear staining score, Jily: Jily cells; for Hoechst 33342 nuclear staining score, Jurkat: Jurkat cells; for Hoechst 33342 nuclear staining score, MRC5: MRC5 cells;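 as to all read-outs here: apoptotic nuclei scored 0 none 1 weak under 50% of cells 2 strong over 50% of cells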
In short: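 After a further 30 min incubation, plates were inspected on a standard inverted fluorescence microscope. The fraction of apoptotic nuclei and other apoptosis-specific morphology were scored as 0 for no activity, 1 for weak activity in less than 50% of the cells, and 2 for strong activity in more than 50% of the cells.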

| IC50 (HeLa) [nM] | IC50 (Jurkat) [nM] | SMILES | IC50 (Jily) [nM] | IC50 (MRC5) [nM] | Hoechst 33342 nuclear staining score, H460 ([1]; conc 0.1) | Hoechst 33342 nuclear staining score, H460 ([1]; conc 0.3) | Hoechst 33342 nuclear staining score, H460 ([1]; conc 1) | Hoechst 33342 nuclear staining score, H460 ([1]; conc 3) | Hoechst 33342 nuclear staining score, HeLa ([1]; conc 0.1) | Hoechst 33342 nuclear staining score, HeLa ([1]; conc 0.3) | Hoechst 33342 nuclear staining score, HeLa ([1]; conc 1) | Hoechst 33342 nuclear staining score, HeLa ([1]; conc 3) | Hoechst 33342 nuclear staining score, Jily ([1]; conc 0.1) | Hoechst 33342 nuclear staining score, Jily ([1]; conc 0.3) | Hoechst 33342 nuclear staining score, Jily ([1]; conc 1) | Hoechst 33342 nuclear staining score, Jily ([1]; conc 3) | Hoechst 33342 nuclear staining score, Jurkat ([1]; conc 0.1) | Hoechst 33342 nuclear staining score, Jurkat ([1]; conc 0.3) | Hoechst 33342 nuclear staining score, Jurkat ([1]; conc 1) | Hoechst 33342 nuclear staining score, Jurkat ([1]; conc 3) | further results |
| --- | --- | --- | --- | --- | --- | --- | --- | --- | --- | --- | --- | --- | --- | --- | --- | --- | --- | --- | --- | --- | --- |
| > 1000 | > 1000 | COc1cc(-c2cc(-c3cccnc3)cn2S(=O)(=O)c2ccc(F)cc2)cc(OC)c1OC [Example 80] | > 1000 | > 1000 | 0 | 0 | 0 | 0 | 0 | 0 | 0 | 0 | 0 | 0 | 0 | 2 (strong activity comprising more than 50% of the cells) | 0 | 0 | 0 | 2 (strong activity comprising more than 50% of the cells) | Hoechst 33342 nuclear staining score, MRC5 ([1]; conc 0.1): 0; Hoechst 33342 nuclear staining score, MRC5 ([1]; conc 0.3): 0; Hoechst 33342 nuclear staining score, MRC5 ([1]; conc 1): 0; Hoechst 33342 nuclear staining score, MRC5 ([1]; conc 3): 0; Hoechst 33342 nuclear staining score, PBLs ([1]; conc 0.1): 0; Hoechst 33342 nuclear staining score, PBLs ([1]; conc 0.3): 0; Hoechst 33342 nuclear staining score, PBLs ([1]; conc 1): 0; Hoechst 33342 nuclear staining score, PBLs ([1]; conc 3): 0 |
| > 1000 | > 1000 | COc1cc(-c2cc(CNc3ccc(-c4nnn[nH]4)cc3)cn2S(=O)(=O)c2ccc(C)cc2)cc(OC)c1OC [Example 73] | > 1000 | > 1000 | 0 | 0 | 0 | 2 (strong activity comprising more than 50% of the cells) | 0 | 0 | 0 | 0 | 0 | 0 | 0 | 1 (weak activity comprising less than 50% of the cells) | 0 | 0 | 0 | 2 (strong activity comprising more than 50% of the cells) | Hoechst 33342 nuclear staining score, MRC5 ([1]; conc 0.1): 0; Hoechst 33342 nuclear staining score, MRC5 ([1]; conc 0.3): 0; Hoechst 33342 nuclear staining score, MRC5 ([1]; conc 1): 0; Hoechst 33342 nuclear staining score, MRC5 ([1]; conc 3): 0; Hoechst 33342 nuclear staining score, PBLs ([1]; conc 0.1): 0; Hoechst 33342 nuclear staining score, PBLs ([1]; conc 0.3): 0; Hoechst 33342 nuclear staining score, PBLs ([1]; conc 1): 0; Hoechst 33342 nuclear staining score, PBLs ([1]; conc 3): 0 |
